Reference: the NIST ThermoML archive (doi:10.1021/je025538u)

How the values were obtained:
[1] = cn = amount concentration of the nth substance listed, in mol/dm3; settings: 101.3 kPa, Liquid
[2] = 101.33 kPa, Liquid

CCCCCCCCCCCCCCCCCC(=O)O [octadecanoic acid] + CCC(C)O
[1]
Settings | mass density, 293.15 K [kg/m3] | mass density, 303.15 K [kg/m3] | mass density, 313.15 K [kg/m3] | mass density, 333.15 K [kg/m3] | viscosity, 293.15 K [mPa·s] | viscosity, 303.15 K [mPa·s] | viscosity, 313.15 K [mPa·s] | viscosity, 333.15 K [mPa·s]
c1 = 0.01 | 806.45 | 798.83 | 792.46 | – | 3.611 | 2.499 | 1.766 | –
c1 = 0.05 | 806.9 | 799.7 | 792.65 | 782.79 | 3.679 | 2.531 | 1.808 | 1.09
c1 = 0.1 | 813.95 | 806.09 | 796.45 | 783.92 | 3.795 | 2.466 | 1.79 | 1.1
c1 = 0.15 | 810.78 | 803.5 | 796.91 | 784.23 | 3.785 | 2.627 | 1.886 | 1.16
c1 = 0.2 | 811.62 | 804.54 | 797.76 | 785.41 | 3.799 | 2.584 | 1.881 | 1.16
c1 = 0.3501 | 814.68 | 806.92 | 800.5 | 788.89 | 4.177 | 2.919 | 2.017 | 1.36

CCCCCCCCCCCCCCCC(=O)O [hexadecanoic acid] + CCC(C)O
[1]
Settings | mass density, 293.15 K [kg/m3] | mass density, 303.15 K [kg/m3] | mass density, 313.15 K [kg/m3] | mass density, 333.15 K [kg/m3] | viscosity, 293.15 K [mPa·s] | viscosity, 303.15 K [mPa·s] | viscosity, 313.15 K [mPa·s] | viscosity, 333.15 K [mPa·s]
c1 = 0.01 | 807.66 | 799.68 | 792.63 | – | 3.53 | 2.464 | 1.751 | –
c1 = 0.05 | 807.67 | 800.09 | 792.74 | 782.3 | 3.616 | 2.499 | 1.789 | 1.09
c1 = 0.1 | 809.21 | 801.34 | 794.66 | 782.9 | 3.613 | 2.512 | 1.808 | 1.08
c1 = 0.1501 | 810.16 | 802.89 | 795.01 | 783.19 | 3.7 | 2.585 | 1.85 | 1.13
c1 = 0.2001 | 810.6 | 802.96 | 795.11 | 783.51 | 3.828 | 2.665 | 1.921 | 1.14
c1 = 0.3501 | 813.04 | 806.24 | 799.34 | 787.5 | 4.056 | 2.834 | 2.045 | 1.27

CCCCCCCCCCCC(=O)O [dodecanoic acid] + CCC(C)O
[1]
Settings | mass density, 293.15 K [kg/m3] | mass density, 303.15 K [kg/m3] | mass density, 313.15 K [kg/m3] | mass density, 333.15 K [kg/m3] | viscosity, 293.15 K [mPa·s] | viscosity, 303.15 K [mPa·s] | viscosity, 313.15 K [mPa·s] | viscosity, 333.15 K [mPa·s]
c1 = 0.0103 | 806.38 | 798.71 | 791.02 | 778.39 | 3.58 | 2.547 | 1.81 | 1.05
c1 = 0.05 | 807.27 | 800.23 | 793.39 | 779.62 | 3.665 | 2.548 | 1.818 | 1.04
c1 = 0.1003 | 807.29 | 800.56 | 794.11 | 780.76 | 3.7 | 2.573 | 1.851 | 1.07
c1 = 0.15 | 808.85 | 801.14 | 794.51 | 782 | 3.688 | 2.585 | 1.865 | 1.08
c1 = 0.2001 | 808.76 | 801.85 | 794.64 | 782.9 | 3.744 | 2.624 | 1.877 | 1.1
c1 = 0.35 | 812.86 | 805.19 | 797.47 | 785.3 | 3.841 | 2.704 | 1.951 | 1.15

CCC(C)O (stereo not drawn) [butan-2-ol]
[2]
Settings | mass density [kg/m3] | viscosity [mPa·s]
293.15 K | 806.6 | 3.663
303.15 K | 799.3 | 2.527
313.15 K | 792.2 | 1.801
333.15 K | 778 | 1.025
